Experiments:
Type in all cases: in vivo
Conditions in all cases: 21 DAA
[1] = system: BRSNW = Brassica napus napus (winter) (winter rape); test: Post-emergent foliar herbicidal activity, greenhouse: BRSNW
Procedure: (§1) Seeds of the desired test plant species were planted in Sun Gro MetroMix® 306 planting mixture, which typically has a pH of 6.0 to 6.8 and an organic matter content of about 30 percent, in plastic pots with a surface area of 103.2 square centimeters (cm^2). When required to ensure good germination and healthy plants, a fungicide treatment and/or other chemical or physical treatment was applied. The plants were grown for 7-36 days in a greenhouse with an approximate 14 hour (h) photoperiod which was maintained at about 18° C. during the day and 17° C. during the night. Nutrients and water were added on a regular basis and supplemental lighting was provided with overhead metal halide 1000-Watt lamps as necessary. The plants were employed for testing when they reached the second or third true leaf stage.
(§2) Treatments consisted of the compound of formula (I) and a second herbicide alone (chlormequat). Weighed amounts of the compound of formula (I) were placed in 25 milliliter (mL) glass vials and dissolved in 4 mL of a 97:3 v/v mixture of acetone and DMSO to obtain concentrated stock solutions. Compound requirements are based upon a 12 mL application volume at a rate of 187 liters per hectare (L/ha). Spray solutions of the second herbicide and compound of formula (I) mixtures were prepared by adding the stock solutions to the appropriate amount of dilution solution to form 12 mL spray solution with active ingredients in two-way combinations. Formulated compounds were applied to the plant material with an overhead Mandel track sprayer equipped with 8002E nozzles calibrated to deliver 187 L/ha over an application area of 0.503 square meters (m^2) at a spray height of […] above average plant canopy. Control plants were sprayed in the same manner with the solvent blank.
(§3) The treated plants and control plants were placed in a greenhouse as described above and watered by sub-irrigation to prevent wash-off of the test compounds. After 20-22 days, the condition of the test plants as compared with that of the control plants was determined visually and scored on a scale of 0 to 100 percent where 0 corresponds to no injury and 100 corresponds to complete kill.
(§4) Colby's equation was used to determine the herbicidal effects expected from the mixtures (Colby, S. R. 1967. Calculation of the synergistic and antagonistic response of herbicide combinations. Weeds 15:20-22.) .
(§5) The following equation was used to calculate the expected activity of mixtures containing two active ingredients, A and B: Expected=A+B−(A×B/100)
(§6) A=observed efficacy of active ingredient A at the same concentration as used in the mixture.
(§7) B=observed efficacy of active ingredient B at the same concentration as used in the mixture.

[2] = system: CHEAL = Chenpodium album L. (common lambsquarters); test: Post-emergent foliar herbicidal activity, greenhouse: CHEAL
Procedure: as §1, §2, §3, §4, §5, §6, §7

[3] = system: CIRAR = Cirsium arvense (L.) Scop. (Canada thistle); test: Post-emergent foliar herbicidal activity, greenhouse: CIRAR
Procedure: as §1, §2, §3, §4, §5, §6, §7

[4] = system: GALAP = Galium aparine L. (catchweed bedstraw); test: Post-emergent foliar herbicidal activity, greenhouse: GALAP
Procedure: as §1, §2, §3, §4, §5, §6, §7

[5] = system: KCHSC = Kochia scoparia (L.) Schrad. (kochia); test: Post-emergent foliar herbicidal activity, greenhouse: KCHSC
Procedure: as §1, §2, §3, §4, §5, §6, §7

[6] = system: LAMPU = Lamium purpureum L. (purple deadnettle); test: Post-emergent foliar herbicidal activity, greenhouse: LAMPU
Procedure: as §1, §2, §3, §4, §5, §6, §7

[7] = system: MATCH = Matricaria recutita L. (wild chamomile); test: Post-emergent foliar herbicidal activity, greenhouse: MATCH
Procedure: as §1, §2, §3, §4, §5, §6, §7

[8] = system: PAPRH = Papaver rhoeas L. (common poppy); test: Post-emergent foliar herbicidal activity, greenhouse: PAPRH
Procedure: as §1, §2, §3, §4, §5, §6, §7

[9] = system: SASKR = Salsola tragus L. (Russian thistle); test: Post-emergent foliar herbicidal activity, greenhouse: SASKR
Procedure: as §1, §2, §3, §4, §5, §6, §7

[10] = system: SINAR = Sinapis arvensis L. (wild mustard); test: Post-emergent foliar herbicidal activity, greenhouse: SINAR
Procedure: as §1, §2, §3, §4, §5, §6, §7

[11] = system: STEME = Stellaria media (common chickweed); test: Post-emergent foliar herbicidal activity, greenhouse: STEME
Procedure: as §1, §2, §3, §4, §5, §6, §7

[12] = system: VERPE = Veronica persica Poir. (Persian speedwell); test: Post-emergent foliar herbicidal activity, greenhouse: VERPE
Procedure: as §1, §2, §3, §4, §5, §6, §7

[13] = system: VIOTR = Viola tricolor L. (wild violet); test: Post-emergent foliar herbicidal activity, greenhouse: VIOTR
Procedure: as §1, §2, §3, §4, §5, §6, §7

[14] = system: TRZAS = Triticum aestivum (spring) (spring wheat); test: Post-emergent foliar herbicidal activity, greenhouse: TRZAS (crop)
Procedure: as §1, §2, §3, §4, §5, §6, §7

[15] = system: HORVS = Hordeum vulgare L. (spring barley); test: Post-emergent foliar herbicidal activity, greenhouse: HORVS (crop)
Procedure: as §1, §2, §3, §4, §5, §6, §7

[16] = Compound I 0 + Chlormequat Chloride 279 g ai/ha
[17] = Compound I 0 + Chlormequat Chloride 558 g ai/ha
[18] = Compound I 0 + Chlormequat Chloride 1119 g ai/ha
[19] = Compound I 2.5 + Chlormequat Chloride 0 g ai/ha
[20] = Compound I 5 + Chlormequat Chloride 0 g ai/ha
[21] = Compound I 10 + Chlormequat Chloride 0 g ai/ha

C[N+](C)(C)CCCl.[Cl-] [Chlormequat Chloride, (2-chloroethyl)trimethylammonium chloride]
BRSNW Obs [1, 16]: 0% | BRSNW Obs [1, 17]: 3% | BRSNW Obs [1, 18]: 5% | CHEAL Obs [2, 16]: 0% | CHEAL Obs [2, 17]: 3% | CIRAR Obs [3, 16]: 5% | CIRAR Obs [3, 17]: 5% | CIRAR Obs [3, 18]: 10% | GALAP Obs [4, 16]: 3% | GALAP Obs [4, 17]: 5% | GALAP Obs [4, 18]: 20% | KCHSC Obs [5, 16]: 5% | KCHSC Obs [5, 17]: 5% | KCHSC Obs [5, 18]: 7% | LAMPU Obs [6, 16]: 15% | LAMPU Obs [6, 17]: 15% | LAMPU Obs [6, 18]: 30% | MATCH Obs [7, 16]: 0% | MATCH Obs [7, 17]: 0% | MATCH Obs [7, 18]: 27% | PAPRH Obs [8, 16]: 5% | PAPRH Obs [8, 17]: 5% | PAPRH Obs [8, 18]: 7% | SASKR Obs [9, 16]: 0% | SASKR Obs [9, 17]: 0% | SASKR Obs [9, 18]: 7% | SINAR Obs [10, 16]: 8% | SINAR Obs [10, 17]: 15% | STEME Obs [11, 16]: 8% | STEME Obs [11, 17]: 8% | STEME Obs [11, 18]: 7% | VERPE Obs [12, 16]: 10% | VERPE Obs [12, 17]: 10% | VERPE Obs [12, 18]: 13% | VIOTR Obs [13, 16]: 0% | VIOTR Obs [13, 17]: 0% | VIOTR Obs [13, 18]: 3% | TRZAS Obs [14, 16]: 0% | TRZAS Obs [14, 17]: 8% | HORVS Obs [15, 16]: 0% | HORVS Obs [15, 17]: 0%

COc1c(Cl)ccc(-c2nc(C(=O)OCc3ccccc3)c(Cl)c(N)c2F)c1F [Compound I, benzyl 4-amino-3-chloro-6-(4-chloro-2-fluoro-3-methoxyphenyl)-5-fluoropyridine-2-carboxylate]
BRSNW Obs [1, 19]: 18% | BRSNW Obs [1, 20]: 13% | BRSNW Obs [1, 21]: 13% | CHEAL Obs [2, 19]: 50% | CHEAL Obs [2, 20]: 58% | CIRAR Obs [3, 19]: 48% | CIRAR Obs [3, 20]: 39% | CIRAR Obs [3, 21]: 60% | GALAP Obs [4, 19]: 55% | GALAP Obs [4, 20]: 66% | GALAP Obs [4, 21]: 77% | KCHSC Obs [5, 19]: 20% | KCHSC Obs [5, 20]: 41% | KCHSC Obs [5, 21]: 62% | LAMPU Obs [6, 19]: 80% | LAMPU Obs [6, 20]: 86% | LAMPU Obs [6, 21]: 94% | MATCH Obs [7, 19]: 20% | MATCH Obs [7, 20]: 25% | MATCH Obs [7, 21]: 20% | PAPRH Obs [8, 19]: 48% | PAPRH Obs [8, 20]: 28% | PAPRH Obs [8, 21]: 35% | SASKR Obs [9, 19]: 15% | SASKR Obs [9, 20]: 50% | SASKR Obs [9, 21]: 67% | SINAR Obs [10, 19]: 70% | SINAR Obs [10, 20]: 73% | STEME Obs [11, 19]: 25% | STEME Obs [11, 20]: 25% | STEME Obs [11, 21]: 27% | VERPE Obs [12, 19]: 20% | VERPE Obs [12, 20]: 17% | VERPE Obs [12, 21]: 23% | VIOTR Obs [13, 19]: 30% | VIOTR Obs [13, 20]: 20% | VIOTR Obs [13, 21]: 20% | TRZAS Obs [14, 19]: 0% | TRZAS Obs [14, 20]: 0% | HORVS Obs [15, 19]: 0% | HORVS Obs [15, 20]: 0%
